Values joined by “and” are separate entries in the source; they are usually repeats but may differ in a detail not shown here. Identical values can stand only once.
Legend:
Details in all cases: incubation time: 72 h
MDA-MB-453 [1] = experiment: normalised viability (% of control), CellTiter-Blue; higher = more viable cells (about 100 = DMSO control)
Procedure: (§1)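 DSRT, CellTiter-Blue viability, 72 h incubation. Signal is normalised to DMSO and benzethonium chloride controls. Value is the normalised response at dose 7.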

CAL-85-1 [2] = experiment: as above
Procedure: as §1

CAL-51 [3] = experiment: as above
Procedure: as §1

DU-4475 [4] = experiment: as above
Procedure: as §1

HDQ-P1 [5] = experiment: as above
Procedure: as §1

CAL-148 [6] = experiment: as above
Procedure: as §1

MDA-MB-436 [7] = experiment: normalised viability (% of control), CellTiter-Blue; higher = more viable cells (about 100 = DMSO control)
How it was run: (§2)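 After 72 h on compound-loaded 384-well plates, breast cancer cell lines received 2.5 µl CellTiter-Blue reagent for 2 h at 37 °C. Fluorescence at 560/590 nm was scaled per plate so that vehicle was 100 and a positive kill control was 0. The value stands for normalised viability at a single listed concentration of the series.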

HCC1599 [8] = experiment: as above
How it was run: as §2

HCC1143 = experiment: drug sensitivity score (DSS), CellTiter-Blue viability (DSS (AUC-based score)); higher = stronger viability inhibition; extreme values may be limits of the assay
Procedure: (§3)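 DSRT with the CellTiter-Blue (resazurin reduction) viability readout, fluorescence 560/590 nm, 72 h incubation. Plates were normalised to DMSO and benzethonium chloride controls. DSS is computed from the area under the fitted dose-response curve (5 or 9 concentrations).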

SK-BR-3 = experiment: as above
Procedure: as §3

MDA-MB-453 [9] = experiment: as above
Procedure: as §3

CAL-85-1 [10] = experiment: as above
Procedure: as §3

MFM-223 = experiment: as above
Procedure: as §3

Hs578T = experiment: as above
Procedure: as §3

MDA-MB-468 = experiment: as above
Procedure: as §3

CAL-51 [11] = experiment: as above
Procedure: as §3

DU-4475 [12] = experiment: as above
Procedure: as §3

HCC1937 = experiment: as above
Procedure: as §3

BT-549 = experiment: as above
Procedure: as §3

MDA-MB-436 [13] = experiment: as above
Procedure: as §3

HDQ-P1 [14] = experiment: as above
Procedure: as §3

MDA-MB-231 = experiment: as above
Procedure: as §3

BT-474 = experiment: as above
Procedure: as §3

CAL-120 = experiment: as above
Procedure: as §3

CAL-148 [15] = experiment: as above
Procedure: as §3

HCC1599 [16] = experiment: as above
Procedure: as §3

SMILES | normalised viability (MDA-MB-453 [1]) | normalised viability (CAL-85-1 [2]) | normalised viability (CAL-51 [3]) | normalised viability (DU-4475 [4]) | normalised viability (HDQ-P1 [5]) | normalised viability (CAL-148 [6]) | normalised viability (MDA-MB-436 [7]; 10 nM) | normalised viability (MDA-MB-436 [7]; 1000 nM) | normalised viability (MDA-MB-436 [7]; 10000 nM) | normalised viability (HCC1599 [8]; 10 nM) | normalised viability (HCC1599 [8]; 1000 nM) | normalised viability (HCC1599 [8]; 10000 nM) | drug sensitivity score (HCC1143) | drug sensitivity score (SK-BR-3) | drug sensitivity score (MDA-MB-453 [9]) | drug sensitivity score (CAL-85-1 [10]) | drug sensitivity score (MFM-223) | drug sensitivity score (Hs578T) | drug sensitivity score (MDA-MB-468) | drug sensitivity score (CAL-51 [11]) | drug sensitivity score (DU-4475 [12]) | drug sensitivity score (HCC1937) | drug sensitivity score (BT-549) | drug sensitivity score (MDA-MB-436 [13]) | drug sensitivity score (HDQ-P1 [14]) | drug sensitivity score (MDA-MB-231) | drug sensitivity score (BT-474) | drug sensitivity score (CAL-120) | drug sensitivity score (CAL-148 [15]) | drug sensitivity score (HCC1599 [16]) | normalised viability (MDA-MB-436 [7]; 1 nM) | normalised viability (MDA-MB-436 [7]; 100 nM) | normalised viability (HCC1599 [8]; 1 nM) | normalised viability (HCC1599 [8]; 100 nM)
O=NN(CCCl)C(=O)NCCCl [Carmustine] (1000 nM) | 105% | 88.4% | 96.9% | 102% | 105% | 105% |  |  |  |  |  |  |  |  |  |  |  |  |  |  |  |  |  |  |  |  |  |  |  |  |  |  |  | 
Cn1cc(C2=Nc3cc(NC(=O)C(N)C4CCCCC4)cc4c3C2=CNNC4=O)cn1 (stereo unspecified) |  |  |  |  |  |  | 102% | 70% | 32.8% | 94.6% | 52.8% | 42% |  |  |  |  |  |  |  |  |  |  |  |  |  |  |  |  |  |  |  |  |  | 
Cn1cnc2c(F)c(Nc3ccc(Br)cc3Cl)c(C(=O)NOCCO)cc21 [Selumetinib] (1000 nM) | 104% | 64.8% | 91.3% | 1.82% | 75.2% | 92.8% |  |  |  |  |  |  |  |  |  |  |  |  |  |  |  |  |  |  |  |  |  |  |  |  |  |  |  | 
Cn1cc(C2=Nc3cc(NC(=O)C(N)C4CCCCC4)cc4c3C2=CNNC4=O)cn1 (stereo unspecified) (1000 nM) | 36.9% | 64% | 87.8% | 72.1% | 67.1% | 62.4% |  |  |  |  |  |  |  |  |  |  |  |  |  |  |  |  |  |  |  |  |  |  |  |  |  |  |  | 
CC(=O)O[C@@]12CO[C@@H]1C[C@H](O)[C@@]1(C)C(=O)[C@H](O)C3=C(C)[C@@H](OC(=O)[C@H](O)[C@@H](NC(=O)OC(C)(C)C)c4ccccc4)C[C@@](O)([C@@H](OC(=O)c4ccccc4)[C@H]21)C3(C)C [Docetaxel] |  |  |  |  |  |  |  | 38.6% and 43.8% |  |  | 104% and 99.7% |  | 19.6 and 25.2 | 28.9 and 29.4 | 24.2 and 24.9 | 22.5 and 22.9 | 16.2 and 17.8 | 31.2 and 30.6 | 19.4 and 20.5 | 22.4 and 25.2 | 26.1 and 28.1 | 27.2 and 24.9 | 27.3 and 29.3 | 18.7 and 19.2 | 17.8 and 22.5 | 24.4 and 25.8 | 21.1 and 19.5 | 24 and 24.9 | 26.1 and 28.4 | 0 | 85% and 80.1% | 19.3% and 34% | 134% and 119% | 101% and 94.3%
CC(=O)c1c(C)c2cnc(Nc3ccc(N4CCNCC4)cn3)nc2n(C2CCCC2)c1=O |  |  |  |  |  |  | 78.1% | 36.7% | 89.8% | 93.3% | 109% | 89.3% | 6.22 | 0 | 8.21 | 0 | 0 | 2.19 | 0 | 5.13 | 0 | 0 | 0 | 0 | 0 | 9.09 | 0 | 8.76 | 0 | 0 |  |  |  | 
Oc1ncnc2[nH]ncc12 [Allopurinol] |  |  |  |  |  |  | 100% | 101% | 93.4% | 87.1% | 77.3% | 90.1% | 0 | 0 | 0 | 0 | 0 | 0 | 0 | 0 | 0 | 0 | 0 | 0 | 0 | 0 | 0 | 0 | 0 | 0 |  |  |  | 
COc1cc2c(cc1O)CC[C@@H]1[C@@H]2CC[C@]2(C)[C@@H](O)CC[C@@H]12 [2-methoxyestradiol] (1000 nM) | 53.3% | 86.8% | 107% | 89.5% | 83% | 89.7% |  |  |  |  |  |  |  |  |  |  |  |  |  |  |  |  |  |  |  |  |  |  |  |  |  |  |  | 
C[C@]1(O)C[C@@H](c2nc(-c3ccc4ccc(-c5ccccc5)nc4c3)c3c(N)nccn32)C1 [OSI-906] |  |  |  |  |  |  | 85.2% | 96% | 71.7% | 104% | 76.8% | 78.9% | 2.39 | 6.92 | 0 | 1.93 | 0 | 2 | 0 | 1.03 | 0 | 4.24 | 3.58 | 0 | 6.19 | 0 | 1.46 | 0 | 0 | 3.98 |  |  |  | 

Reference: the supplement of paper PMC4862054
